Assay results as given in ChEMBL document CHEMBL1811787, “Identification of the binding modes of N-phenylphthalimides inhibiting bacterial thymidylate synthase through X-ray crystallography screening” (J Med Chem, 2011).
Active and inactive are the calls of the source. The rule behind the calls is not given here.

Key:
[1] = target: T1, Thymidylate synthase (Enterococcus faecalis (strain ATCC 700802 / V583)) (UniProt Q834R3); test: Inhibition of Enterococcus faecalis thymidylate synthase using N5,N10-methylene tetrahydrofolate at 50 uM by chromogenic assay
T1 sequence (whole entry): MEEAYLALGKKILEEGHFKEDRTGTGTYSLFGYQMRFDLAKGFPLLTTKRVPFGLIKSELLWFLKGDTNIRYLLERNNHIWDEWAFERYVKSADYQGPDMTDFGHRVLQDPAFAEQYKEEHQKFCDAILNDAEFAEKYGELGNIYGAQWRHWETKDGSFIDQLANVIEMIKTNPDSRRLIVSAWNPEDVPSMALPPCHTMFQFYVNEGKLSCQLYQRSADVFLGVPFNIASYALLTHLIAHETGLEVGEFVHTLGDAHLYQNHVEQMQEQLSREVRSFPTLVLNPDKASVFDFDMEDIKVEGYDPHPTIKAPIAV

Thymidylate synthase [2] = target: T2, Thymidylate synthase (Homo sapiens, UniProt P04818); test: Inhibition of human thymidylate synthase using N5,N10-methylene tetrahydrofolate at 50 uM by chromogenic assay
Target sequence in this assay (P04818 2-313 limits assumed): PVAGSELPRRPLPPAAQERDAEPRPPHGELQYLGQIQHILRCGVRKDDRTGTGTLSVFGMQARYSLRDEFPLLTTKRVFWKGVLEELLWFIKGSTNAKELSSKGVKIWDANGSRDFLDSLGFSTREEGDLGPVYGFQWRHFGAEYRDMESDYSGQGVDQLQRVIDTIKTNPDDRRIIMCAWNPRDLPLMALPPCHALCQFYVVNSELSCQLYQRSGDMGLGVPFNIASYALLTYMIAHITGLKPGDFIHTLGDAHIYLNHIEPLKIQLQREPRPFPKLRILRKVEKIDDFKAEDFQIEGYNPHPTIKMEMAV

Thymidylate synthase [3] = target: T3, Thymidylate synthase (Lactobacillus casei, UniProt P00469); test: Inhibition of Lactobacillus casei thymidylate synthase using N5,N10-methylene tetrahydrofolate by chromogenic assay; design: species or system Lacticaseibacillus casei
T3 sequence (P00469 whole entry): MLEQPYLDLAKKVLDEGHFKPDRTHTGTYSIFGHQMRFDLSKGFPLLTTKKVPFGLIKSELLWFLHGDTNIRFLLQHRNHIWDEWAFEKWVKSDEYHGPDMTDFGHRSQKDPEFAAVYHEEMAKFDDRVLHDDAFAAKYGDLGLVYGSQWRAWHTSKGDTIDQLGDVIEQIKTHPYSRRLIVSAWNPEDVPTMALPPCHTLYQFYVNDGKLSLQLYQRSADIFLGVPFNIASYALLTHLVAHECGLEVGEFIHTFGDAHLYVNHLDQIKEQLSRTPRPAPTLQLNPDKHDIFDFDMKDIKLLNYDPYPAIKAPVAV

[4] = Inhibition of Escherichia coli thymidylate synthase using N5,N10-methylene tetrahydrofolate by chromogenic assay
Thymidylate synthase [5] = target: T4, Thymidylate synthase (Enterococcus faecalis (strain ATCC 700802 / V583), UniProt Q834R3); test: Inhibition of Enterococcus faecalis thymidylate synthase using N5,N10-methylene tetrahydrofolate by chromogenic assay
T4 sequence (Q834R3 whole entry): T1 sequence (whole entry)

[6] = target: T5, Thymidylate synthase (Lactobacillus casei) (UniProt P00469); test: Inhibition of Lactobacillus casei thymidylate synthase using N5,N10-methylene tetrahydrofolate at 50 uM by chromogenic assay; conditions: Lacticaseibacillus casei
T5 sequence (whole entry): T3 sequence (P00469 whole entry)

Thymidylate synthase [7] = target: T2, Thymidylate synthase
Target sequence in this assay (P04818 whole entry): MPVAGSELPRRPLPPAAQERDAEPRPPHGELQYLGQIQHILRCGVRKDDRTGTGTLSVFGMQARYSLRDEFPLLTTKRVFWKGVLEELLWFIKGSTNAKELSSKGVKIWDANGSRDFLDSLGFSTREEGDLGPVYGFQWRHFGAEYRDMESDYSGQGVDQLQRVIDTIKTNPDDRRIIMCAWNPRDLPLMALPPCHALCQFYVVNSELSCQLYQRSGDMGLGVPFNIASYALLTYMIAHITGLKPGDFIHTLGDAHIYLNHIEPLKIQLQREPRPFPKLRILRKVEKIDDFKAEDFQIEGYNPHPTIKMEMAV
Description: Inhibition of human thymidylate synthase using N5,N10-methylene tetrahydrofolate by chromogenic assay

inhibition [1] | inhibition (Thymidylate synthase [2]) | Ki (Thymidylate synthase [3]) | Ki (Thymidylate synthase [5]) | inhibition [6] | Ki (Thymidylate synthase [7]) | Structure (SMILES) | Ki [4]
inactive | inactive | 38 µM |  |  |  | CN1C(=O)c2cccc(CNc3cccc(S(N)(=O)=O)c3)c2C1=O | 
inactive | inactive |  |  |  |  | CN1C(=O)c2cccc(CNCCc3cccs3)c2C1=O | 61 µM
 | inactive | 56 µM | 109 µM |  |  | CCOC(=O)c1ccc(NCc2cccc3c2C(=O)N(C)C3=O)cc1 | 
inactive | inactive | 95 µM |  |  |  | CN1C(=O)c2cccc(CBr)c2C1=O | 
inactive | inactive | 27 µM |  |  |  | CN1C(=O)c2cccc(CNc3ccc(C(=O)O)cn3)c2C1=O | 
inactive |  | 33 µM |  |  |  | CN1C(=O)c2cccc(CNc3ccc(S(=O)(=O)O)cc3)c2C1=O | 42 µM
inactive | inactive | 51 µM |  |  |  | CN1C(=O)c2cccc(CNc3ccc(C#N)cc3)c2C1=O | 
inactive |  | 69 µM |  |  |  | Cc1cccc2c1C(=O)N(c1cccc(C(=O)O)c1)C2=O | 
inactive | inactive |  |  |  |  | CN1C(=O)c2cccc(CNCCP(=O)(O)O)c2C1=O | 14 µM
inactive | inactive | 14 µM |  |  |  | CN1C(=O)c2cccc(CNc3ccc(C(=O)c4ccccc4)cc3)c2C1=O | 82 µM
 |  | 41 µM | 183 µM |  |  | COCCCNCc1cccc2c1C(=O)N(C)C2=O | 

More lines, now with the values behind:

Structure (SMILES) | inhibition [1] | inhibition (Thymidylate synthase [2]) | Ki (Thymidylate synthase [3]) | Ki (Thymidylate synthase [5]) | inhibition [6] | Ki (Thymidylate synthase [7]) | Ki [4]
O=C1OC(c2ccc(O)c(Cl)c2)(c2ccc(O)c(Cl)c2)c2cccc3cccc1c23 |  |  |  |  |  |  | 0.6 µM
Cc1cccc2c1C(=O)N(c1nccs1)C2=O |  | inactive | 3 µM | 11 µM |  |  | 
Cc1cccc2c1C(=O)N(c1cccc3[nH]ccc13)C2=O |  | inactive | 25 µM | 26 µM |  |  | 
Cc1cccc2c1C(=O)N(c1ccc(C#N)cc1)C2=O |  | inactive | 22 µM | 8 µM |  |  | 31 µM
CN1C(=O)c2cccc(CNc3ccc([N+](=O)[O-])c4ccccc34)c2C1=O | inactive | inactive | 10 µM |  |  |  | 92 µM
Cc1cccc2c1C(=O)N(c1ccnc(Cl)c1)C2=O |  | inactive | 23 µM | 7 µM |  |  | 111 µM
Cc1cccc2c1C(=O)N(c1cc(C(=O)O)cc(C(=O)O)c1)C2=O | inactive | inactive | 20 µM |  |  |  | 
Cc1cccc2c1C(=O)N(c1cccc(O)c1)C2=O |  | inactive | 93 µM | 61 µM |  |  | 
Cc1cccc2c1C(=O)N(c1ccc(C(=O)NCC(=O)O)cc1)C2=O |  |  | 3 µM | 11 µM |  |  | 42 µM
Cc1cccc2c1C(=O)N(c1ccc(C(=N)N)cc1)C2=O | inactive | inactive | 9 µM |  |  |  | 
Cc1cccc2c1C(=O)OC2=O | inactive | inactive |  |  | inactive |  | 49 µM
Cc1cccc2c1C(=O)N(CCc1cccs1)C2=O | inactive | inactive | 44 µM |  |  |  | 
Cc1cccc2c1C(=O)N(c1ccc(-n3ccnc3)cc1)C2=O |  |  | 34 µM | 33 µM |  | 206 µM | 
Cc1cccc2c1C(=O)N(c1cc(-c3ccccc3)ccc1O)C2=O |  |  | 3 µM | 2 µM |  |  | 3 µM
CC(=O)c1ccc(N2C(=O)c3cccc(C)c3C2=O)cc1 | inactive | inactive | 6 µM |  |  |  | 41 µM
Cc1cc(N2C(=O)c3cccc(C)c3C2=O)ccc1N1C(=O)c2ccc(Cl)cc2C1=O | inactive | inactive | 36 µM |  |  |  | 33 µM
Cc1cccc2c1C(=O)N(c1ccc(C(=O)O)c(O)c1)C2=O | inactive |  | 14 µM |  |  |  | 36 µM
Cc1cccc2c1C(=O)N(c1ccc(C(F)(F)F)cc1)C2=O |  | inactive | 14 µM | 60 µM |  |  | 18 µM
